Measurements taken from patent US20070232575A1, “Treatment of Pulmonary Artery Hypertension with Dhea, Dheas, Dhea Analogs, or Dhea Derivatives” (priority 2004, published 2007).
“Also recorded” adds a separate entry of the source.

Tests used:
[1] = tested on: chronic hypoxic-pulmonary artery hypertension (CH-PAH); assay: Mean pulmonary arterial pressure (PAP) in chronic hypoxic (CH-PAH) rat model; assay type: in vivo
Procedure: To study the mechanisms of PAH and its possible treatments, an animal model was utilized. The placement of rats in a hypobaric chamber for 7 to 21 days induced chronic hypoxia, resulting in CH-PAH, a useful model system for studying mammalian PAH.
The rat model experiments were performed as follows. Adult male Wistar rats (220-240 g) were randomized into five groups. […] Intravascular administration was performed via the catheter inserted in the right jugular vein.

systemic circulation = assay: Systemic circulation and cardiac function (systemic blood pressure, heart rate, cardiac output)
Procedure: To determine the effect of the chronic hypoxia treatment-induced CH-PAH and to determine the effect of DHEA administration on PAP, the following PAP measurement method was used. Rats were anaesthetized with ketamine 50 mg/kg and xylazine 10 mg/kg by i.p. injection. Mean PAP was measured with 2.5-F catheters inserted into the right jugular vein in closed-chest rats (Bonnet, S., et al. (2002) Cardiovasc. Res. 53, 1019-1028, which is incorporated by reference herein in its entirety). The effect of DHEA on the systemic blood pressure was controlled by another catheter placed into the left carotid artery. Throughout all the experiments, heart rate and oxygen saturation were monitored. Acute hypoxic stress with fraction of inspired O2 of 10% were applied by administration of an air plus nitrogen gas mixture. The fraction of inspired O2 was monitored with an oxygen analyzer (Servomex, Crowborough, Great Britain), and the effects on the PAP were measured over a 10-15 minute period.
Echocardiography measurements were also performed to determine differences between the treated and control rats. To perform this procedure, the rats were first anaesthetized. After thorax epilation, the animals were placed in the left lateral decubitus position. Resting echocardiography measurements were performed at ambient conditions by using a SONOS 5500 (Philips) echocardiograph and a 12-MHz sector scare transducer. Right and left ventricle wall thickness was measured on M-mode tracings following the recommendations of the American Society of Echocardiology as described by Jones et al. ((2002) Am. J. Physiol. 283, H364-H371). Right cardiac output was evaluated by measuring the electrical R-R delay, the PA diameter, and the velocity time integral (VTI) of PA flux.

PASMCs from CH rats = assay: In vitro DHEA treatment of PASMCs, resting [Ca2+]i, with K channel blockers and pathway inhibitors; assay type: cell-based, rat
Procedure: (§1) The heart and lungs were removed and intrapulmonary arteries (IPAs) (150-300 μm of internal diameter) were then dissected. The adventitial and intimal layers were removed. For contraction experiments, rings (3 mm in length) were prepared.
As mentioned earlier, Ca^2+ is thought to play an important role in the response to chronic hypoxia. To measure the effects of DHEA on [Ca^2+]i of individual PASMCs, a [Ca^2+]i-sensitive fluorophore, indo-1 (Calbiochem, San Diego, Calif.), was employed. […] The recording system included a Nikon Diaphot inverted microscope fitted with epifluorescence.
To further examine how DHEA functions to decrease the [Ca^2+]i in PASMCs, the following experiment was performed.

BKCa [2] = molecular target: T1, BKCa (Rattus norvegicus, UniProt Q62976); assay: IbTx-induced contraction of IPA rings from CH-DHEA rats; assay type: in vivo; details: for increase of tension induced by IbTx: rings from CH-DHEA rats compared with control and CH rats
T1 construct: from tissue; host or cells: intrapulmonary artery rings of adult male Wistar rats
T1 sequence (Q62976 whole entry): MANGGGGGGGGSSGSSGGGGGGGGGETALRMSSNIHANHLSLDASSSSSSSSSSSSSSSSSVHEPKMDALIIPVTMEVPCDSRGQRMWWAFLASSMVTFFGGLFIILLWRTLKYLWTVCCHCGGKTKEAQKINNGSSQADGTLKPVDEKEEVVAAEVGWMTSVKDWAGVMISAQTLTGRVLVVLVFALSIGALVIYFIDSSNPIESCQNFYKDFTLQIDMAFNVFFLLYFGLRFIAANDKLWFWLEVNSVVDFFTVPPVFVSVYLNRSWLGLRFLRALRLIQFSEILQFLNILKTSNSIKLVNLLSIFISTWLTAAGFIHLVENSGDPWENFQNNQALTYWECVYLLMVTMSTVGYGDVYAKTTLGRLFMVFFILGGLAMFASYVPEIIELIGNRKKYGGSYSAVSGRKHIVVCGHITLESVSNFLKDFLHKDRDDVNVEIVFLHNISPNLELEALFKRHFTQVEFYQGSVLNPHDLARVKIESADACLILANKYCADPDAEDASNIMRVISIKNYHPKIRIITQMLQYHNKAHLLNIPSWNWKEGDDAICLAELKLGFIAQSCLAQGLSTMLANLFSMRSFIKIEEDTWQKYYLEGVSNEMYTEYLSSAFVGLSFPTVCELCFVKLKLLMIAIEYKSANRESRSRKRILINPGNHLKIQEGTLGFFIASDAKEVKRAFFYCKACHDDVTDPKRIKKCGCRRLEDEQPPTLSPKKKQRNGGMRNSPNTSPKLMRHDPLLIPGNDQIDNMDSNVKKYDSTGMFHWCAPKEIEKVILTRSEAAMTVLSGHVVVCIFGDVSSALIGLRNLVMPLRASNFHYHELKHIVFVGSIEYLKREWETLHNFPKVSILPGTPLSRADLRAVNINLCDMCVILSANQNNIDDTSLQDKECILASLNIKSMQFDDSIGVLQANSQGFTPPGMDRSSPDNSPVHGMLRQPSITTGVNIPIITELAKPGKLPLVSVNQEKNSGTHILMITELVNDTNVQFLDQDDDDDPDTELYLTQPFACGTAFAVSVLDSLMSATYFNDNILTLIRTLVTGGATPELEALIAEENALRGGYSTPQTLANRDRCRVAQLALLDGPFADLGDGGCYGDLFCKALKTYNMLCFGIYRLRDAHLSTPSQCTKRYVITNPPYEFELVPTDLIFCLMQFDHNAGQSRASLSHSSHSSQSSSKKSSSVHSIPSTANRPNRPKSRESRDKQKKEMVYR
T1 sequence (P97678 whole entry partner): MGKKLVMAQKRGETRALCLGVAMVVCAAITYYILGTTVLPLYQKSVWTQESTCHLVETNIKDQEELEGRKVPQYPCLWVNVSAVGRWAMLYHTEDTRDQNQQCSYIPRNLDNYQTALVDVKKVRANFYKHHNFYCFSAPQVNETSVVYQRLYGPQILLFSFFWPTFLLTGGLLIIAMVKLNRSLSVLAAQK
Procedure: Statistical analyses for the experiments described herein were performed by using NCSS 5.0 software (NCSS, Kaysville, Utah). Values were expressed as mean±SEM. Contractions were expressed as a percentage of K^+-rich (80 mM) solution-induced contractions. Intergroup differences were assessed by a repeated-measures ANOVA or factorial ANOVA, as appropriate. Post hoc analysis used a Fisher multiple comparison test. For some comparisons, the Pearson product moment correlation coefficient between pairs of variables was used as indicated (ORIGIN 5.0, OriginLab, Northampton, Mass.). Regarding the number of experiments, (n) refers to the number of rings or cells and (N) to the number of animals. Differences were considered significant when P<0.05.
as §1
CH induces remodeling of the intrapulmonary artery (IPA) in the rat model of CH-PAH. To examine the changes in the IPA wall upon CH exposure, the following method was performed. Isometric contractions were measured in rings from IPAs that were mounted in vertical 5-ml organ baths of a computerized isolated organ bath system (IOX, EMKA Technologies, Paris), as described in Bonnet, S., et al. (2001, Am. J. Physiol. 281, L183-L192, which is incorporated by reference herein in its entirety). Baths were filled with Krebs-Henseleit solution (composition in mM: 118.4 NaCl/4.7 KCl/2.5 CaCl2/1.2 MgSO4/1.2 KH2PO4/25 NaHCO3/11.1 D-glucose, pH 7.4). The baths were maintained at 37° C. and bubbled with a 95% O2/5% CO2 gas mixture. […] A concentration increment was made once the maximal contractile effect of the preceding concentration had been recorded.

BKCa [3] = molecular target: T2, BKCa (Homo sapiens, UniProt Q12791); details: hypoxic human pulmonary cells, Peng et al. 1999; cited from earlier work
T2 construct: host or cells: hypoxic human pulmonary cells
T2 sequence (Q12791 whole entry): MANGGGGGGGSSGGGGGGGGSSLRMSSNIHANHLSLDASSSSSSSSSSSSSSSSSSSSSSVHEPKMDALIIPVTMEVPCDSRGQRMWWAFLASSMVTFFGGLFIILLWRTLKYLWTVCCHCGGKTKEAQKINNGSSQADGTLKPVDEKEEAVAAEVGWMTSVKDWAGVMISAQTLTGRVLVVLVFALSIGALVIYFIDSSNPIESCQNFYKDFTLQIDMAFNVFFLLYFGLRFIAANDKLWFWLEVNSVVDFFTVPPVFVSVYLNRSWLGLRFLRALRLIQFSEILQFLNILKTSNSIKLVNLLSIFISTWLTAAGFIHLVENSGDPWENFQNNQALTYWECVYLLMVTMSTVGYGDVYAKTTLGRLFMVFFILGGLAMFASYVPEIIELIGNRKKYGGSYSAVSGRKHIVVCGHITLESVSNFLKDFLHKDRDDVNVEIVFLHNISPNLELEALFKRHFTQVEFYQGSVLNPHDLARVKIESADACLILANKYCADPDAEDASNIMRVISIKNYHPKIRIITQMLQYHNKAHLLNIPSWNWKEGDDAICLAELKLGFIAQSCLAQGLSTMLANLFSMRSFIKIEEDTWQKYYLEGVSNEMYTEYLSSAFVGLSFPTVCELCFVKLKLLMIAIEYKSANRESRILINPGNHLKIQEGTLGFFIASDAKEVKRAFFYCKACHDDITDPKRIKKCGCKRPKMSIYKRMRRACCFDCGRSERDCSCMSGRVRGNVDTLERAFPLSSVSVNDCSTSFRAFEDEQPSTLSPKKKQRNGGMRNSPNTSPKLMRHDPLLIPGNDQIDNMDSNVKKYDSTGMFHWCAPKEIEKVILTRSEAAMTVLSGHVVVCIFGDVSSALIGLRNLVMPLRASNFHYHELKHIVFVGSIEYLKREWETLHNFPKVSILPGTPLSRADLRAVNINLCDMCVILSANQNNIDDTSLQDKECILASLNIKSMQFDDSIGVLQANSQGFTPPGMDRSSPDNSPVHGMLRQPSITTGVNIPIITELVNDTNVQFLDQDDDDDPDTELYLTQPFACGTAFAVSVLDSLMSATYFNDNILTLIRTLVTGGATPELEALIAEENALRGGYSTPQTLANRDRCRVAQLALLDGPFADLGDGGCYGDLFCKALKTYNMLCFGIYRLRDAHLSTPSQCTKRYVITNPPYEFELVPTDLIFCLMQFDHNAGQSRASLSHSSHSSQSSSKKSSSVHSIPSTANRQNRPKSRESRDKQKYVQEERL

[4] = cited from earlier work
[5] = one week oral DHEA treatment in CH rats

With `C[C@]12CC[C@H](O)CC1=CC[C@@H]1[C@@H]2CC[C@]2(C)C(=O)CC[C@@H]12` [DHEA, dehydroepiandrosterone] the “effect of additional intravascular DHEA on PAP” value ([1]; 3-week CH-DHEA treated rats) was “did not further reduce PAP; also recorded: no effect”, the PAP ([1]; 3-wk CH rats, ten minutes after acute intravascular DHEA 3 mg/kg, before 34.5±1.7) was 24.4±2.5 mmHg and the “dose dependence of PAP decrease” value ([1]; CH rats, intravascular, successively increasing doses up to 3 mg/kg) was “dose-dependent manner”. The “effect on PAP/PAH” value ([1]; CH rats, single intravascular dose of DHEA 3 mg/kg) was “significant decrease in PAP; also recorded: significantly decreased PAH”, the PAP ([1]; CH-DHEA rats: oral DHEA 30 mg/kg every alternate day during 3 wk hypoxia, untreated CH 34.5±1.7) was 21.7±1.1 mm Hg and the “decrease of PAP” value ([1]; CH-PAH rats, intravascular 0.03 mg/kg) was roughly 10%. The “decrease in PAP” value ([1]; CH-PAH rats, intravascular 0.3 mg/kg) was roughly 25%, the “decrease in PAP” value ([1]; CH-PAH rats, intravascular 3.0 mg/kg) was roughly 45% and the “PAP, CH-DHEA vs control rats” value ([1]; after 1 or 2 wk of hypoxia exposure with oral DHEA) was “no difference”. The “effect of intravascular DHEA on PAP” value ([1]; control animals) was “no effect”, the “effect on PAP/PAH (reversal)” value ([1]; hypertensive CH rats, 1-wk oral DHEA 30 mg/kg every alternate day) was “partially but significantly reversed; also recorded: significantly decreased PAH” and the “effect on PAP (prevention)” value ([1]; oral DHEA for 3 weeks during chronic hypoxia, vs CH rats) was “significant preventive effect; also recorded: decreased; also recorded: almost entirely prevent”. The “effect on PAP” value ([1]; oral DHEA, normoxic rats) was “no effect”, the PAP ([1]; rats 3 weeks in CH, oral DHEA during the last week, no DHEA 35.9±1.9) was 21±1.1 mm Hg and the cardiac output (systemic circulation; [5]) was “did not affect”. The heart rate (systemic circulation; [5]) was “did not affect”, the systemic pressure (systemic circulation; [5]) was “did not affect” and the cardiac output (systemic circulation; oral DHEA 3 weeks) was “No significant changes”. The heart rate (systemic circulation; oral DHEA 3 weeks) was “No significant changes”, the cardiac function (systemic circulation; oral DHEA 3 weeks, CH-DHEA rats (FIG. 1 D and E)) was “did not affect” and the “systemic blood pressure / systemic circulation” value (systemic circulation; oral DHEA 3 weeks, control, DHEA treated and untreated groups) was “No significant changes; also recorded: did not affect”. For the same compound, the “effect on [Ca2+]i” value (PASMCs from CH rats; DHEA 100 μM, PASMCs from normoxic, normoxic-DHEA and CH-DHEA rats) was “did not alter”, the “resting [Ca2+]i value” (PASMCs from CH rats; PASMCs from CH rats, 15 minute in vitro 100 μM DHEA, before 143±7) was 82 ± 3 nM and the “effect on resting [Ca2+]i” value (PASMCs from CH rats; PASMCs from CH rats, in vitro DHEA 100 μM) was “significant decrease; also recorded: decrease of the resting [Ca^2+]i”. For the same compound, the “increase of tension induced by IbTx” value (BKCa [2]; 100 nM IbTx) was 52%, the “increase of tension induced by IbTx” value (BKCa [2]; 300 nM IbTx) was 55% and the “sensitivity/reactivity of IPA rings to IbTx” value (BKCa [2]; rings from CH-DHEA rats vs CH rats) was “increase the sensitivity for IbTx; also recorded: increase in the IbTx response; also recorded: higher reactivity to IbTx”. The “action on BKCa” value (BKCa [3]) was “BKCa opener”, the “toxicity in short- and long-term human studies” value ([4]; Baulieu et al. 2000) was “without major toxicity” and the “safety of large amounts in human patients” value ([4]; Tummala & Svec 1999) was “safely administered”.
